From paper PMC8111447 (Frontiers in Pharmacology, 2021)

Tests used:
[1] = target: EGFR^L858R (Homo sapiens, UniProt P00533, L858R); assay: EGFR kinase inhibition assay (HTRF); format: biochemical; settings: 30 μmol/L ATP, no pre-incubation, n = 3
Experimental: (§1) The sequence of the substrate is proprietary to CisBio. […] Kinase activity assays were performed in a total reaction volume of 3 μl per well. […] The substrate mixture (1.5 μl) consisted of 1 μmol/L TK substrate, 30 μmol/L ATP, 1 mmol/L DTT, and 10 mmol/L MgCl2. […] The plates were incubated for 1 h before being read on Pherastar using standard HTRF settings. […] There was no pre-incubation of the test compounds with the enzyme/substrate mixture prior to ATP addition. For IC50 calculation, data were analyzed using XLFit version 5.3.

[2] = target: T1, EGFR^L858R/T790M (Homo sapiens, UniProt P00533, L858R/T790M); assay: EGFR kinase inhibition assay (HTRF); format: biochemical; settings: 30 μmol/L ATP, no pre-incubation, n = 3
T1 construct: with amino acids 696-end containing the mutations T790M and L858R; GST (N); purchased Millipore
Experimental: as §1

[3] = target: EGFR^d746–750 (Homo sapiens, UniProt P00533, DEL746-750); assay: EGFR kinase inhibition assay (HTRF); format: biochemical; settings: 30 μmol/L ATP, no pre-incubation, n = 3
Experimental: as §1

[4] = target: EGFR^L861Q (Homo sapiens, UniProt P00533, L861Q); assay: EGFR kinase inhibition assay (HTRF); format: biochemical; settings: 30 μmol/L ATP, no pre-incubation, n = 3
Experimental: as §1

[5] = target: EGFR^WT (Homo sapiens, UniProt P00533); assay: EGFR kinase inhibition assay (HTRF); format: biochemical; settings: 30 μmol/L ATP, no pre-incubation, n = 3
Experimental: as §1

[6] = target: EGFR^d746–750/T790M (Homo sapiens, UniProt P00533, DEL746-750/T790M); assay: EGFR kinase inhibition assay (HTRF); format: biochemical; settings: 30 μmol/L ATP, no pre-incubation, n = 3
Experimental: as §1

[7] = test system: EGFR phosphorylation in PC-9 cells; assay: Phosphorylation of EGFR assay after wash-out; format: cell-based, human; settings: 0.1 μmol/L for 2 h, then washed out
Experimental: (§2) Cells (NCI-H1975/PC-9/[…]) were seeded into a 384-well plate (10,000 cells/well), grown for 24 h, and then treated with 0.1 μmol/L of test compounds for 2 h. Cells were washed with fresh medium once. Then, 50 μl of medium was added in each well and the plate was cultured in an incubator for 0, 1, 2, 6 and 24 h. Cells were washed with ice-cold Hanks Balanced Salt Solution (HBSS) before extraction with 25 μl cell lysis buffer. The phosphorylation levels of EGFR were measured as described above.

[8] = test system: EGFR phosphorylation in NCI-H1975 cells; assay: Phosphorylation of EGFR assay after wash-out; format: cell-based, human; settings: 0.1 μmol/L for 2 h, then washed out
Experimental: as §2

[9] = target: T2, Blk(h) (Homo sapiens, UniProt P51451); assay: Kinase panel (Eurofins); format: biochemical; settings: n = 2; for inhibition at 1 µM: at 1 μmol/L; for IC50: read-out: IC50 kinase inhibition
T2 construct: purchased Eurofins
Excerpt: (§3) These receptors have a methionine gatekeeper in their kinase domains, and are related to hyperglycemia in other clinical trials of EGFR TKI, such as Co-1686.

[10] = target: T3, Met(h) (Homo sapiens, UniProt P08581); assay: Kinase panel (Eurofins); format: biochemical; settings: n = 2; for inhibition at 1 µM: at 1 μmol/L; for IC50: read-out: IC50 kinase inhibition
T3 construct: purchased Eurofins
Excerpt: as §3

[11] = target: T4, JAK3(h) (Homo sapiens, UniProt P52333); assay: Kinase panel (Eurofins); format: biochemical; settings: n = 2; for inhibition at 1 µM: at 1 μmol/L; for IC50: read-out: IC50 kinase inhibition
T4 construct: purchased Eurofins
T4 sequence (P52333 1-1124): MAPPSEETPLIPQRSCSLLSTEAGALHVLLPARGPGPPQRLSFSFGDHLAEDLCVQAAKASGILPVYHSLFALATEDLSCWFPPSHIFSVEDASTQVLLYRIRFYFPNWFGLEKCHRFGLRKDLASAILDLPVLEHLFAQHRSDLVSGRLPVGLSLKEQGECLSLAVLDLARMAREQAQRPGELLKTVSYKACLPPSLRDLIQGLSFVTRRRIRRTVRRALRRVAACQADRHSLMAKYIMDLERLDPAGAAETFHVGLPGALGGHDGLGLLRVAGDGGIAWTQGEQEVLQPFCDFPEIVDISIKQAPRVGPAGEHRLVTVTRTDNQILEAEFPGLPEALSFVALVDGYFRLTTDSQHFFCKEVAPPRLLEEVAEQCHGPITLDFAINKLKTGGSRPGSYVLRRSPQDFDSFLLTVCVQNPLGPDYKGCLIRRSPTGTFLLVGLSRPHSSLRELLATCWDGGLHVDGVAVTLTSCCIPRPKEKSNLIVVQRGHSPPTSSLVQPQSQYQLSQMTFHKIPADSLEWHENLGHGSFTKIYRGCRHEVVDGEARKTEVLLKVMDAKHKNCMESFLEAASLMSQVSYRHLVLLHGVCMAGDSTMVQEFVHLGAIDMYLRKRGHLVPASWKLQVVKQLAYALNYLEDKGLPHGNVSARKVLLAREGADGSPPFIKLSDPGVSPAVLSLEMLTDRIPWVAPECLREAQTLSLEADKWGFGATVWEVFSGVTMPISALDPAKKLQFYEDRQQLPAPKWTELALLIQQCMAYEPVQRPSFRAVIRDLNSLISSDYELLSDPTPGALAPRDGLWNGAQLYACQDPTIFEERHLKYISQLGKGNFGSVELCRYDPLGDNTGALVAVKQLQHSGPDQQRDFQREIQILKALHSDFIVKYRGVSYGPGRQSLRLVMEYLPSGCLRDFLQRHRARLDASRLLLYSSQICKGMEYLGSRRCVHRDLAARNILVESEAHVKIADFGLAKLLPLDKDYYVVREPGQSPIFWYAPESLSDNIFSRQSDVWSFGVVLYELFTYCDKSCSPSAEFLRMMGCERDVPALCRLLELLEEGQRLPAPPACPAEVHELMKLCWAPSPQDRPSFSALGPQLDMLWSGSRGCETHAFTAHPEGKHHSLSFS
Excerpt: as §3

[12] = target: T5, IGF-1R(h), activated (Homo sapiens, UniProt P08069); assay: Kinase panel (Eurofins); format: biochemical; settings: n = 2; for inhibition at 1 µM: at 1 μmol/L; for IC50: read-out: IC50 kinase inhibition
T5 construct: purchased Eurofins
Excerpt: as §3

[13] = target: T6, FAK(h) (Homo sapiens, UniProt Q05397); assay: Kinase panel (Eurofins); format: biochemical; settings: n = 2; for inhibition at 1 µM: at 1 μmol/L; for IC50: read-out: IC50 kinase inhibition
T6 construct: purchased Eurofins
Excerpt: as §3

[14] = target: T7, BRK(h) (Homo sapiens, UniProt Q13882); assay: Kinase panel (Eurofins); format: biochemical; settings: n = 2; for inhibition at 1 µM: at 1 μmol/L; for IC50: read-out: IC50 kinase inhibition
T7 construct: purchased Eurofins
Excerpt: as §3

[15] = test system: PC-9 (exon 19 del) xenograft; assay: PC-9 xenograft model; format: in vivo, Nu/Nu nude mice; settings: oral, 2.5 to 15 mg/kg
Experimental: The female Nu/Nu nude mice were purchased from Beijing Vital River Laboratories. […] Nu/Nu nude mice were purchased from the Beijing Vital River Laboratories of China. The 6–8 weeks old female mice were inoculated subcutaneously at the right flank with approximately 3–5 × 10^6 tumor cells in 0.2 ml of medium. The treatments were started when the tumor size reached approximately 200 mm^3. […] All mice were orally administrated once daily for consecutive 14 days. Mouse body weight, tumor weight and tumor volume (TV) were measured twice per week. TV was then used for the calculation of tumor inhibitory rate and tumor regression rate.

T6 sequence (Q05397 whole entry): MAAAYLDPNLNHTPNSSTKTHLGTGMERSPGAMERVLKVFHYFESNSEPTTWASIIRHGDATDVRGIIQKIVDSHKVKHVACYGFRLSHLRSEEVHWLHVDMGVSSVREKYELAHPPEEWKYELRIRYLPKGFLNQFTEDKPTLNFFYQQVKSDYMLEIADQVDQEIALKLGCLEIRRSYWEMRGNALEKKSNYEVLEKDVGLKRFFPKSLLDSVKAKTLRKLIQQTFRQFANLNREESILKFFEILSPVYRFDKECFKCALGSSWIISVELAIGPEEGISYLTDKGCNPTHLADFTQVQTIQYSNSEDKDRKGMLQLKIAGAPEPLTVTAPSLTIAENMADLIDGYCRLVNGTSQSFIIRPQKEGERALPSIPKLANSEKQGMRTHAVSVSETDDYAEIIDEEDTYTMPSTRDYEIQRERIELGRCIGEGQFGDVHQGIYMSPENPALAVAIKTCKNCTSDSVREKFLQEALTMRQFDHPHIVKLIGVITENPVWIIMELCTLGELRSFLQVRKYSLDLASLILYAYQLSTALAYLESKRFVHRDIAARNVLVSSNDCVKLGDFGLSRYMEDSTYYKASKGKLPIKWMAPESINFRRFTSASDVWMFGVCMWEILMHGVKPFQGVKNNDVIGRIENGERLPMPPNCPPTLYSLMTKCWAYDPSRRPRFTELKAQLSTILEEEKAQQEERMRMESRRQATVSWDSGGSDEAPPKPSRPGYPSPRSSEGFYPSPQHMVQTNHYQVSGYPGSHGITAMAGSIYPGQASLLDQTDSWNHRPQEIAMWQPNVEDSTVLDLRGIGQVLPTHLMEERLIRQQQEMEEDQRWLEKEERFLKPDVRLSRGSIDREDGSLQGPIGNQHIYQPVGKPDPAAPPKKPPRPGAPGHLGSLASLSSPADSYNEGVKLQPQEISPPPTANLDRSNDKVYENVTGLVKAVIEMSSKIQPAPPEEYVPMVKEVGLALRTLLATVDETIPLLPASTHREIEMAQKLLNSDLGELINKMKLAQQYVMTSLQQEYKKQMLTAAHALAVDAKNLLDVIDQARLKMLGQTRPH
T3 sequence (P08581 25-1390): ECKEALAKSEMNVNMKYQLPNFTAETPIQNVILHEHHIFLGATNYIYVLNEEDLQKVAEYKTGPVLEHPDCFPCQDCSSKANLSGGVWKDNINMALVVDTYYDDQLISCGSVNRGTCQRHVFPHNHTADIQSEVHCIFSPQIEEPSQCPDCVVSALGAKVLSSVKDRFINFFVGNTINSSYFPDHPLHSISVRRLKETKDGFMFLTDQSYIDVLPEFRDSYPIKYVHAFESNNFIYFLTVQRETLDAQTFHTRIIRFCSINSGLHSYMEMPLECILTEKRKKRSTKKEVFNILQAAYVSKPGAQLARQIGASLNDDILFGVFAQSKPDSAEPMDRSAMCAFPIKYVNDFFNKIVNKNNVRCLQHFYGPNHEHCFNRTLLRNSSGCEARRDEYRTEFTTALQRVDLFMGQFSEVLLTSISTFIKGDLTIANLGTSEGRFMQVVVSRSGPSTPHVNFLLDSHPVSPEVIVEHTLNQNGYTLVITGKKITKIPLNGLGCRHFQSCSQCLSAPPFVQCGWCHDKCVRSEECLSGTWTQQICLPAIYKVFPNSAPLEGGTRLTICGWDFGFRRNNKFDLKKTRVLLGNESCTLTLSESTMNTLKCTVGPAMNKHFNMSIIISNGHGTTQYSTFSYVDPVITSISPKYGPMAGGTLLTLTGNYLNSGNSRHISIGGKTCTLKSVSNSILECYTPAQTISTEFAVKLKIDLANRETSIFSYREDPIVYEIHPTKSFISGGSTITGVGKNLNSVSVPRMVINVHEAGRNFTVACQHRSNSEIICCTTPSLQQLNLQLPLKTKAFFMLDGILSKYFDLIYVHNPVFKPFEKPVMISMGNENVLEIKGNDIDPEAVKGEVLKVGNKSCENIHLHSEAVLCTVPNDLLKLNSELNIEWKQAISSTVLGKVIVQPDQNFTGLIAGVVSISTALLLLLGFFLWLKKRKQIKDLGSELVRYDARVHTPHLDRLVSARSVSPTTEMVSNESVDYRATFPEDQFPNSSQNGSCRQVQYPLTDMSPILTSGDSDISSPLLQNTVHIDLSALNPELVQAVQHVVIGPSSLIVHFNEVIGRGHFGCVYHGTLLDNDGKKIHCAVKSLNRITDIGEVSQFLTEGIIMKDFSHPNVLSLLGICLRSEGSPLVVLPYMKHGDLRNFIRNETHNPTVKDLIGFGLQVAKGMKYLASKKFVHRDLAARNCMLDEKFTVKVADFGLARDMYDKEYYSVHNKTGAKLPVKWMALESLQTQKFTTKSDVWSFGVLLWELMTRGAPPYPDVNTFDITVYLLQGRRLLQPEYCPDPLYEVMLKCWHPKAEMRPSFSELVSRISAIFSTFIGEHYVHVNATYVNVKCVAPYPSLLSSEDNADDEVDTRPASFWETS
T7 sequence (Q13882 whole entry): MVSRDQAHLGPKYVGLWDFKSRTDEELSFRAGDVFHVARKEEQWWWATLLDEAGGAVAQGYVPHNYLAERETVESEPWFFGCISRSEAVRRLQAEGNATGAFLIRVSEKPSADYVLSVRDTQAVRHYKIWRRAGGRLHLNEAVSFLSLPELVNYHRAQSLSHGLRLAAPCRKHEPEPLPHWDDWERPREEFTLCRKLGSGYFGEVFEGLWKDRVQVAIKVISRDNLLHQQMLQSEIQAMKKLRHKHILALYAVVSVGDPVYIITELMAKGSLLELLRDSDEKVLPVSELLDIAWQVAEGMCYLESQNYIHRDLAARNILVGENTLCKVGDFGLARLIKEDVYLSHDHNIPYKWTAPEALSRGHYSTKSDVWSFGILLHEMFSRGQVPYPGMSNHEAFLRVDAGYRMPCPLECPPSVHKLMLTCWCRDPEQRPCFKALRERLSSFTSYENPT
T2 sequence (P51451 whole entry): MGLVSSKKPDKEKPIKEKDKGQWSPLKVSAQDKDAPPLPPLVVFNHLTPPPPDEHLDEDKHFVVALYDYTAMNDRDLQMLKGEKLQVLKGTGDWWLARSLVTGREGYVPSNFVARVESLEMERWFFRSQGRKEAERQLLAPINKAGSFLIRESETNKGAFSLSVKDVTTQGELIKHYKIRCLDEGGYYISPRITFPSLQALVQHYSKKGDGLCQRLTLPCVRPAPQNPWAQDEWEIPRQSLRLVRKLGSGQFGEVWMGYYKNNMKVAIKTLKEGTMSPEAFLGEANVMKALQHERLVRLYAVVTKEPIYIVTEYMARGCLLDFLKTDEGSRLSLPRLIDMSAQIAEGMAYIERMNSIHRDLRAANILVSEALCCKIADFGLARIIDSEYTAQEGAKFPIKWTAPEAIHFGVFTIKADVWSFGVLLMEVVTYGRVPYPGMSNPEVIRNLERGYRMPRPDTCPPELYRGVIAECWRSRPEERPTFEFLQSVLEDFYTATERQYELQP
T5 sequence (P08069 31-1367): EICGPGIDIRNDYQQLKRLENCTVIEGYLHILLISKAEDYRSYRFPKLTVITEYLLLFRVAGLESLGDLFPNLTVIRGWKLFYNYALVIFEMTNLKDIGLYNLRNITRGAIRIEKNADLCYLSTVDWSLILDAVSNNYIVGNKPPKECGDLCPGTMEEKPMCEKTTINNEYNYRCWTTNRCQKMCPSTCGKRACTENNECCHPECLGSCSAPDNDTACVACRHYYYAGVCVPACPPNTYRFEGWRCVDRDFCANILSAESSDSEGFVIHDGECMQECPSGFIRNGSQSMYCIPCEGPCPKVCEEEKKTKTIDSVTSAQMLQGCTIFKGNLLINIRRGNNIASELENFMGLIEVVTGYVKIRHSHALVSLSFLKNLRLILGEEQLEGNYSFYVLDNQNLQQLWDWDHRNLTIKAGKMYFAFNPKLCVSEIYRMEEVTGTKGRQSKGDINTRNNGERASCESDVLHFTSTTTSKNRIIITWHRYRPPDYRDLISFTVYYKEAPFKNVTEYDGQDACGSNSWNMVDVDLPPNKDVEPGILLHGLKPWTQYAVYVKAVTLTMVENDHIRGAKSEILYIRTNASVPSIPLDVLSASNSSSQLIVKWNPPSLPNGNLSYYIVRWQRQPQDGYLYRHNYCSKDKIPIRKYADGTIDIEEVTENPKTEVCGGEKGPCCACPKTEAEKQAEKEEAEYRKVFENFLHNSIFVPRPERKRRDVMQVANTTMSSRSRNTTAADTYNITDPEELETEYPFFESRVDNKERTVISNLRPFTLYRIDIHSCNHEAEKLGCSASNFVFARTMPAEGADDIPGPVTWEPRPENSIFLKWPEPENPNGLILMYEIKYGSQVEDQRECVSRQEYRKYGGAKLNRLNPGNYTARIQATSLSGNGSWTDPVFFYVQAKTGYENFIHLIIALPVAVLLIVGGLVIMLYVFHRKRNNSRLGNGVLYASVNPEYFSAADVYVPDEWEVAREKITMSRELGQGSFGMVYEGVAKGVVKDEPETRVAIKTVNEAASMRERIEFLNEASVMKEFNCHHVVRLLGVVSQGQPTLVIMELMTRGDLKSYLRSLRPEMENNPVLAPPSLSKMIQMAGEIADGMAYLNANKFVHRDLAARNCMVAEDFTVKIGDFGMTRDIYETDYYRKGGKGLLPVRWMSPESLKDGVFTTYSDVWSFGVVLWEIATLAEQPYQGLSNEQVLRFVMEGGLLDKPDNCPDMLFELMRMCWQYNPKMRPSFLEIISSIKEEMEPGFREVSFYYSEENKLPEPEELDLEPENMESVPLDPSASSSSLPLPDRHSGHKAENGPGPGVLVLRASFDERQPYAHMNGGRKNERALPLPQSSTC

IC50 [1] [nM]	IC50 [2] [nM]	IC50 [3] [nM]	IC50 [4] [nM]	IC50 [5] [nM]	IC50 [6] [nM]	inhibition at 1 µM [9] [%]	IC50 [9] [nM]	inhibition at 1 µM [10] [%]	IC50 [10] [nM]	inhibition at 1 µM [11] [%]	IC50 [11] [nM]	inhibition at 1 µM [12] [%]	IC50 [12] [nM]	inhibition at 1 µM [13] [%]	IC50 [13] [nM]	inhibition at 1 µM [14] [%]	IC50 [14] [nM]	SMILES	duration of continued inhibition of EGFR phosphorylation after wash-out [7]	duration of continued inhibition of EGFR phosphorylation after wash-out [8]	also measured
6	1	1.7	32	144	1.1	85	229	73	486	55	1370	64	709	87	267	91	80	C=CC(=O)Nc1cc(Nc2nccc(-c3c4n(c5ccccc35)CCCC4)n2)c(OC)cc1N(C)CCNC [Imp3]	at least 6 h	at least 6 h	
0.7	0.1	1.4	4	18	0.89	83	143	46	737	61	1750	46	499	68	235	85	62	C=CC(=O)Nc1cc(Nc2nccc(-c3c4n(c5ccccc35)CCCC4)n2)c(OC)cc1N(C)CCN(C)C [SH-1028]	at least 6 h	at least 6 h	tumor growth [15]: significant inhibition of tumor cell growth
